Results taken from US10093938B2, “Regulated switch for gene expression” (The Johns Hopkins University, priority 2014, dated 2018).

What was measured:
Assay type in all cases: cell-based, Saccharomyces cerevisiae
cam-TA [1] = assay: camphor-Off switch, GFP reporter (flow cytometry) in strain camG-TA
Protocol: To evaluate the performance of the system, we used GFP as a reporter.
However, another strain camG-TA that was constructed by introducing the […] expression cassette into the cam-TA strain produced significant amounts of GFP (FIG. 3C). From this, we conclude that cam-TA binds to camO and can activate the transcription of the reporter gene gfp.
Subsequently, the kinetics of the system was investigated using the camG-TA strain.
Cellular fluorescence from GFP was determined using a LSRII flow cytometer (Becton Dickinson, Franklin Lakes, N.J.) equipped with 488-nm argon ion laser (blue laser) and a 530/30-filter. All samples were suspended in sterile water, and 10,000 cells were analyzed per sample. Data acquisition and analysis were performed using FACSDiva software (Becton Dickinson) and FlowJo (Tree Star, Ashland, Oreg.).

cam-TA [2] = assay: camphor-Off system with ADE2 reporter, growth on SC-Ade
Text: FIG. 4. […] The cells were 10-fold diluted in across each row.
Another gene ADE2 (SEQ ID No. 10) was used to further evaluate the camphor-Off system. Specifically, we investigated availability of the system to complement the adenine-auxotrophy in a camphor-dependent manner. […] On the other hand, another strain camA-TA, which had cam-TA differently from camA-EmV, grew in […] SC-Ade media (FIG. 4B). […] The reversion frequency is approximately 10^−3. The behavior of each strain was thoroughly consistent with the schematic model of the camphor-system (FIG. 2).

cam-TA [3] = settings: BY-TeCaOFF
Text: (§1) FIG. 6. Independent regulation of fluorescent reporters, RFP and GFP, with camphor-Off and Tet-Off systems. (A) pSIB859 can be used for integrating the camphor-Off system at a single transformation. Its derivative plasmid pSIB872 carries mCherry as a reporter. (B) Plasmid pSIB498 for the Tet-Off system. Its derivative pSIB527 carries gfp as a reporter. (C)-(F) Strain BY-TeCaOFF carries both pSIB872 and pSIB527. Cell images in SC medium (C), SC with camphor (D), SC with Dox (E), and SC with camphor and Dox. The top, middle, and bottom rows represent images of RFP, GFP, and DIC, respectively. Strain BY-TeCaOFF was grown for 1 day in SC medium with the indicated compounds.
(§2) The experiments in this section were performed to examine whether the camphor-Off system was orthogonal/compatible with the Tet-Off system in a yeast strain. Firstly, we developed new two acceptor vectors: one was used for the camphor-Off switch and the other was the Tet-Off switch. […]
(§3) Cells were viewed with an Axioskop-2 microscope (Carl Zeiss, Oberkochen, Germany) equipped with an X-cite120 light source (ExFo, Ontario, Canada) and a fluorescence filter set. A 100× objective and AxioVision software were used to capture fluorescence and differential interference contrast (DIC) images.

tTA (TetR-VP16 fusion) = molecular target: T1, tTA (TetR-VP16 fusion) (Escherichia coli, UniProt P04483); assay: Orthogonality: Tet-Off GFP reporter in strain BY-TeCaOFF (microscopy); settings: 25 μM, 1 day in SC medium
T1 construct: expressed in transfected cells; host or cells: Saccharomyces cerevisiae strain BY-TeCaOFF (integrated pSIB527, CMV promoter)
Text: as §1, §2, §3

cam-TA, sequence (as listed by the source): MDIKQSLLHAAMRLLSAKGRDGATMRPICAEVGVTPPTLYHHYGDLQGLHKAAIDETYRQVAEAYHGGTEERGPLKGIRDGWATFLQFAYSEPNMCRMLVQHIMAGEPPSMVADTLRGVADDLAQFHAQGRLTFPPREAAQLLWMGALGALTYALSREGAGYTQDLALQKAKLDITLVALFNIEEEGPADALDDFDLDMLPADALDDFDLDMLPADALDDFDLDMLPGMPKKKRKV

Substance: D-Camphor
- effective concentration for the camphor-Off system (cam-TA [1]; GFP reporter, camG-TA strain): 25 µM
- camphor concentration in the presence of which the GFP signal drastically decreased (cam-TA [1]; camG-TA strain in SC medium, camPr-gfp reporter): ≥ 25 µM
- period over which GFP intensity went to almost the same level as that of BY4741 (cam-TA [1]; camG-TA strain in the presence of camphor): 7 h
- growth of strain camA-TA on SC-Ade media that contained camphor (cam-TA [2]; 100 μM camphor, 1 day at 30° C., camPr-ADE2): hardly proliferated at all
- reversion frequency (cam-TA [2]; camA-TA on SC-Ade media containing camphor): approximately 10^−3
- corresponding reporter protein (mCherry, camphor-Off) on addition of the drug (cam-TA [3]; 25 μM, 1 day in SC medium): drastic decrease
- expression of mCherry reporter when both camphor and Dox were supplied (cam-TA [3]; camphor and Dox 25 μM each): repressed
- the other fluorescence (GFP, Tet-Off) on addition of camphor alone (tTA (TetR-VP16 fusion)): detected robustly
